Assay [1] relates to 32DtetP210Bcr-Abl cells (32D-bcr-abl). In words: Low cell density cell proliferation / cell death assay, bcr-abl dependent cells. The format is cell-based, murine. The following applies: for activity (death of 32D-bcr-abl cells) / selectivity (32D-bcr-abl over control cells): result in words; for activity (death of 32D-bcr-abl cells): structure-activity comparison; for selectivity (32D-bcr-abl over control cells): versus control 32D cell line; for activity / selectivity: in words; for inhibition of the 32DtetP210bcrabl cell line: 1 micromolar, FIG. 13, in words. How it is done:
(§1) The acetylenes were prepared by deprotonation of a propiolate (either methyl or tert-butyl) with n-butyllithium and subsequent reaction with an isocyanate (FIG. 4). Modifications may be readily made following the aforementioned schemes. The furan and acetylene libraries were both tested for activity in a cell-based assay where the death of engineered murine myeloid cells (32D-bcr-abl), the survival of which depends on the activity of bcr-abl tyrosine kinase, was sought.
(§2) The biological activity of these compounds was evaluated in two ways, a murine cell line differential proliferation assay and a NCI 60 human carcinoma cell-line growth inhibition and cell death assay. The murine cell death assays were performed using a p210bcrabl transformed 32D murine cell line. […] The NCl assay was performed in the Developmental Therapeutics Program at the National Cancer Institute. This assay measures the inhibition of cell growth and cell death from sixty different human carcinomas.
(§3) The furan and acetylene libraries were both tested for activity in a cell-based assay where the death of engineered murine myeloid cells (32D-bcr-abl), the survival of which is depends on the activity of bcr-abl tyrosine kinase, was sought.
(§4) Low cell density high throughput cell proliferation assay Between 50 and 100 32D and 32DtetP210Bcr-Abl cells in 100 microliters of medium without serum were exposed to the test compound for 15 minutes. An equal volume of 20% serum supplemented tissue culture medium was then added and the cells were inoculated in single well in 32 wells of a 96 well plate. The endpoint of the assay was the fraction of the 32 wells in which a cell pellet was seen to develop which was filled with live cells. This assay is subject to automated screening by a plate reader for the cell pellet. We used this high throughput assay to screen for compounds that suppress the growth of the 32DtetP210Bcr-Abl cell line in the absence of IL-3, but allow the growth of the 32D cell line in the presence of IL-3. Various concentrations of each compound were tested.

Another assay concerns 32D cells. Briefly: Low cell density cell proliferation assay, control cell line. The format is cell-based, murine. The note with it: for control cells surviving: 100 nM. How it is done: as §1
as §2, with “carcinomas. Both the acetylene and furan structural cores represent novel chemical entities with no prior reports of biological activity. […] At present, the use of these compounds is to be preferred in the treatment of tumors and cancer.” for “carcinomas.”
as §3, §4

The test system of assay [2] is 60 human carcinoma cell lines. In words: NCI 60 human carcinoma cell-line growth inhibition and cell death assay, whole panel. Format: cell-based. How it is done:
as §2, with “carcinomas. Both the acetylene and furan structural cores represent novel chemical entities with no prior reports of biological activity. […] At present, the use of these compounds is to be preferred in the treatment of tumors and cancer.” for “carcinomas.”
(§5) In order to obtain additional information about the behavior of our compounds in cancerous cells, 18 compounds were submitted to and accepted by the NCl for testing on 60 human carcinoma cell lines as set forth in the examples section. This would confirm the activity seen in our cell-based assay and maybe give an insight into the mechanism of action and biological target of the acetylene/furan compounds. […] As a result, K1P was singled out by the NCl for further testing: MTD (Maximum Tolerated Dose) and murine hollow fiber in vivo assay. These are being carried out at the present time, along with testing of furans AN7A and AN7B in the 60 human cancer cell lines. […]

The test system of assay [3] is carcinoma and model carcinoma cell lines. Briefly: Summary of activity in the cell line assays. The format is cell-based. The note with it: in words. How it is done: as §2, with “carcinomas. Both the acetylene and furan structural cores represent novel chemical entities with no prior reports of biological activity. […] At present, the use of these compounds is to be preferred in the treatment of tumors and cancer.” for “carcinomas.”

A further assay deals with T1, CDK2/cyclinA (Homo sapiens, UniProt P24941).
T1 construct: purchased Upstate Biotechnologies, Lake Placid, N.Y
Briefly: Cell free kinase inhibition assay. The format is biochemical. How it is done: (§6) Cell Free Kinase Inhibition Assay. A panel of 60 kinases (Upstate Biotechnologies, Lake Placid, N.Y.) were analyzed in in vitro cell free kinase assays.

In a further assay the test system is CK1. Briefly: Cell free kinase inhibition assay. The format is biochemical. How it is done:
as §6

A further assay has as its system CaMKII. In words: Cell free kinase inhibition assay. Format: biochemical. As for the experimental part: as §6
For a further assay, the target named is T2, CaMKIV (Homo sapiens, UniProt Q16566).
T2 construct: purchased Upstate Biotechnologies, Lake Placid, N.Y
T2 sequence (Q16566 1-473): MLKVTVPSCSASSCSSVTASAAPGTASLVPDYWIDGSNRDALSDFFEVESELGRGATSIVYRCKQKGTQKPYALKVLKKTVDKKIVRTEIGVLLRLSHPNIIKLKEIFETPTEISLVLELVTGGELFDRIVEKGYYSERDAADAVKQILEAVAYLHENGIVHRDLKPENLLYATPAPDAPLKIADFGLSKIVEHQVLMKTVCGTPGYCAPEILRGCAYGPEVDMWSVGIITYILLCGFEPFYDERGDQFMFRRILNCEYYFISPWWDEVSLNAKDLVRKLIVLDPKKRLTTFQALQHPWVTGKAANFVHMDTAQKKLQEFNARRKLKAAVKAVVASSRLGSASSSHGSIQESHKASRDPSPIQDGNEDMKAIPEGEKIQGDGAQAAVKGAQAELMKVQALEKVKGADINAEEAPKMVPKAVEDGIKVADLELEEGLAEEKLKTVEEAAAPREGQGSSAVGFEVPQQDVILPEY
Briefly: Cell free kinase inhibition assay. Format: biochemical. How it is done:
as §6

The target of another assay is T3, Fyn (Homo sapiens, UniProt P06241).
T3 construct: purchased Upstate Biotechnologies, Lake Placid, N.Y
T3 sequence (P06241 whole entry, species assumed): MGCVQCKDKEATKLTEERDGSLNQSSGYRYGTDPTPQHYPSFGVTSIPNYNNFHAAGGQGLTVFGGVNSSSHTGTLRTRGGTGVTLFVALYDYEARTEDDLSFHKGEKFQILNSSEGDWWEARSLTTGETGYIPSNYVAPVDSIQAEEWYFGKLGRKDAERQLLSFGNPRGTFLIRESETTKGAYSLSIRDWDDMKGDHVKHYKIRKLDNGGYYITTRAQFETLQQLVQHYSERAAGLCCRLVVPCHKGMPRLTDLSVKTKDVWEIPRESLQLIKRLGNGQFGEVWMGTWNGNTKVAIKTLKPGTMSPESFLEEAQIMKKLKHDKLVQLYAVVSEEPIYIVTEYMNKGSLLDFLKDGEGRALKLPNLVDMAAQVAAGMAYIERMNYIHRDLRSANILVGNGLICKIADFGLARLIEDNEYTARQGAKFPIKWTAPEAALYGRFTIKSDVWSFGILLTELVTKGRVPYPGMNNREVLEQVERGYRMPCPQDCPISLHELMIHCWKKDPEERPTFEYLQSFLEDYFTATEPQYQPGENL
Briefly: Cell free kinase inhibition assay. Format: biochemical. As for the experimental part: as §6

The target of the next assay is T4, IKKBeta (Homo sapiens, UniProt O14920).
T4 construct: purchased Upstate Biotechnologies, Lake Placid, N.Y
T4 sequence (O14920 1-756): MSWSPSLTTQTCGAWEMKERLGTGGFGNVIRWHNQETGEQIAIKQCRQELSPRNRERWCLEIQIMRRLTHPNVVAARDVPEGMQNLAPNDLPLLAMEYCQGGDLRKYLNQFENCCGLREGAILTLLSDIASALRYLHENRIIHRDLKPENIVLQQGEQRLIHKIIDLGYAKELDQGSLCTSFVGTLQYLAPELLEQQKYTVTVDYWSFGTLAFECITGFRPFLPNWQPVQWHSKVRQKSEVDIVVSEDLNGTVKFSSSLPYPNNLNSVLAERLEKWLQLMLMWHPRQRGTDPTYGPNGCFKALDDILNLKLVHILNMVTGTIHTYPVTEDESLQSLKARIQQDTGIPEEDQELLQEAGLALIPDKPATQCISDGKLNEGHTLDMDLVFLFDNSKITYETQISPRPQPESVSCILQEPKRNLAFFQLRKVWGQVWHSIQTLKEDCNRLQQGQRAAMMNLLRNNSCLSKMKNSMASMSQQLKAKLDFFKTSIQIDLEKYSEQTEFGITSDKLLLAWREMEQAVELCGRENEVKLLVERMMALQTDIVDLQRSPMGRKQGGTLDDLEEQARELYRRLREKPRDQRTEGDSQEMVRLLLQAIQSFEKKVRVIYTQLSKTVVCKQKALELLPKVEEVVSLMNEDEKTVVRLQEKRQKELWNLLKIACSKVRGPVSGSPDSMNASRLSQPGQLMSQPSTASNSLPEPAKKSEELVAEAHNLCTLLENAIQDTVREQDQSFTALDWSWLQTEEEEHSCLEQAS
In words: Cell free kinase inhibition assay. Format: biochemical. As for the experimental part:
as §6

In another assay the target is T5, Lyn (Homo sapiens, UniProt P07948).
T5 construct: purchased Upstate Biotechnologies, Lake Placid, N.Y
T5 sequence (P07948 whole entry, species assumed): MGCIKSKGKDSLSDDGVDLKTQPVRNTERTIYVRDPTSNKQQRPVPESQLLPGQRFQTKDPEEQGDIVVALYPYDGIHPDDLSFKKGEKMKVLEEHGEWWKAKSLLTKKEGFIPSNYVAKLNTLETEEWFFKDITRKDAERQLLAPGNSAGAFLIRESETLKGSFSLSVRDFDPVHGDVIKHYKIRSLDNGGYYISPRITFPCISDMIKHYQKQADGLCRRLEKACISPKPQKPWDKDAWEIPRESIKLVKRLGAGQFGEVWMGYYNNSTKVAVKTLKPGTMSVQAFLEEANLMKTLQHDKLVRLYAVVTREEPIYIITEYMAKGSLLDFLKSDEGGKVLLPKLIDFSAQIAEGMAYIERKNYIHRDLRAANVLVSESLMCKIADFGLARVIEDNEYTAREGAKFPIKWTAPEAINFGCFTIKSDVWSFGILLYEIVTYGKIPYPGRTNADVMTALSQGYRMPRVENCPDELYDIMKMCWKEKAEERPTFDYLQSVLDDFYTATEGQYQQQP
Briefly: Cell free kinase inhibition assay. The format is biochemical. As for the experimental part: as §6

Another assay deals with T6, PKCbII (Homo sapiens, UniProt P05771).
T6 construct: purchased Upstate Biotechnologies, Lake Placid, N.Y
T6 sequence (P05771 1-673 isoform P05771-2): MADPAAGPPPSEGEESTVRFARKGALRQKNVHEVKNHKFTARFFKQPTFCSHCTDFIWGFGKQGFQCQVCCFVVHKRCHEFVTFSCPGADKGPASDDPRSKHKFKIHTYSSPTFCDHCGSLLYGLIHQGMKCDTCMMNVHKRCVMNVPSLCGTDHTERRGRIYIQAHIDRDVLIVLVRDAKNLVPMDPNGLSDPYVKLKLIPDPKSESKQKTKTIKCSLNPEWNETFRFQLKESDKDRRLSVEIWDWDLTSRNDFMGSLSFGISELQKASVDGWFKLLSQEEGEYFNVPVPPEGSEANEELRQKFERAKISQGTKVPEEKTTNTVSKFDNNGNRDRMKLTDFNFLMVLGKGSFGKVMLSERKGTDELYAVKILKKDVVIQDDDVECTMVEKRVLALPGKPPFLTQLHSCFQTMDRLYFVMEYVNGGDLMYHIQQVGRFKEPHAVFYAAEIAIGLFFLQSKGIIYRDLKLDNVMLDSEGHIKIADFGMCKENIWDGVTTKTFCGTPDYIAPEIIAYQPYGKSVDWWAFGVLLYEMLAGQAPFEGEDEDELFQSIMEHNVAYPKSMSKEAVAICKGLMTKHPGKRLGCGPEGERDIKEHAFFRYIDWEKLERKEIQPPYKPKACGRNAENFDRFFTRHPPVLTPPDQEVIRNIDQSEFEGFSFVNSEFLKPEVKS
In words: Cell free kinase inhibition assay. The format is biochemical. How it is done: as §6

Another assay deals with T7, PKCy (Homo sapiens, UniProt P05129).
T7 construct: purchased Upstate Biotechnologies, Lake Placid, N.Y
In words: Cell free kinase inhibition assay. Format: biochemical. How it is done: as §6

The next assay concerns leukemia cell lines. Briefly: NCI 60 human carcinoma cell-line growth inhibition assay, leukemia panel. Format: cell-based. The following applies: span over the lines. How it is done:
as §2, with “carcinomas. Both the acetylene and furan structural cores represent novel chemical entities with no prior reports of biological activity. […] At present, the use of these compounds is to be preferred in the treatment of tumors and cancer.” for “carcinomas.”
as §5

In another assay the test system is renal cell lines. Briefly: NCI 60 human carcinoma cell-line growth inhibition assay, renal panel. The format is cell-based. The following applies: span over the lines. How it is done:
as §2, with “carcinomas. Both the acetylene and furan structural cores represent novel chemical entities with no prior reports of biological activity. […] At present, the use of these compounds is to be preferred in the treatment of tumors and cancer.” for “carcinomas.”
as §5

The text below walks through data of US7304092B1, “Compounds and methods for treating tumors, cancer and hyperproliferative diseases” (Yale University, priority 2002, dated 2007).

What is called inhibition is how much of the control response was suppressed. As a reminder, the % Inhibition is the change of the read-out against control, counted positive when it falls. Lower therefore signals little suppression. For orientation: GI50 means the concentration at which growth is held to half of that of the control. Read a high GI50 as lower sensitivity of the cells.

SMILES strings stand for the structures. Entries after “also recorded” stand apart in the source; their conditions may differ.

In assay [1] (100 nM), `CC(C)(C)OC(=O)C#CC(=O)NC1CCCCC1` [AC1] displayed a leukemic cells surviving of 50%. Moreover, the control cells surviving in the assay on 32D cells is 100%.

In the case of `COC(=O)C#CC(=O)Nc1ccc(OC)cc1` [AC3], in assay [1], the “activity (death of 32D-bcr-abl cells)” value is “decreased activity and selectivity dramatically”; the “selectivity (32D-bcr-abl over control cells)” value was “decreased activity and selectivity dramatically”.

Take `COC(=O)C#CC(=O)Nc1ccccc1` [AC6]: in assay [1], the “activity (death of 32D-bcr-abl cells)” value is “increased both selectivity and activity”; the “selectivity (32D-bcr-abl over control cells)” value is “increased both selectivity and activity”.

Take `COC(=O)C#CC(=O)Nc1c(F)cccc1F` [AC9]: the “activity (death of 32D-bcr-abl cells)” value in assay [1] is “inactive”.

Consider `COC(=O)C#CC(=O)Nc1c(C(C)C)cccc1C(C)C` [AC10], for which, in [1], the “activity (death of 32D-bcr-abl cells)” value is listed as “moderate activity” and the “selectivity (32D-bcr-abl over control cells)” value is “no selectivity”.

Turning to `COC(=O)C#CC1CCCCC1` [AC11], the “activity (death of 32D-bcr-abl cells)” value in assay [1] is “little or no activity”.

With `COC(=O)C#CC(=O)NCc1ccccc1` [AC13], in assay [1], the “activity (death of 32D-bcr-abl cells)” value is “active” and the “selectivity (32D-bcr-abl over control cells)” value is reported as “little selectivity”.

With `COC(=O)C#CC(=O)Nc1cccc(OC)c1` [AC15], in assay [1] (1 uM level), the activity result is “activity was regained” and the selectivity result was “selectivity remained low”.

With `COC(=O)C#CC(=O)Nc1ccccc1OC` [AC16], in [1] (1 uM level), the activity entry was “activity was regained” and the selectivity entry is listed as “selectivity remained low”.

In the case of `COC(=O)C#CC(=O)Nc1cc(OC)cc(OC)c1` [AC17], in assay [1] (1 uM level), the activity result is “activity was regained” and the selectivity entry is “selectivity remained low”.

For the compound `COC(=O)C#CC(=O)Nc1ccc2ccccc2c1` [AC19], in assay [1] (100 nM), the activity entry was “excellent activity” and the selectivity entry is “shows selectivity”. Moreover, in [2] (NCI 60 cell lines), the “concentration below which no activity was shown” value was at least 10 µM. In addition, in assay [3], the “activity against carcinoma and model carcinoma cell lines” value is recorded as “good activity”.

As to `COC(=O)C#CC(=O)Nc1ccc(-c2ccccc2)cc1` [AC21], in assay [1] (100 nM), the activity result is “excellent activity” and the selectivity entry was “only AC19 shows selectivity”.

As to `COC(=O)C#CC(=O)Nc1ccc(Oc2ccccc2)cc1` [AC22], the values for the activity result in assay [1] (10 nM) and in assay [1] (100 nM) were “not active” and “excellent activity; also recorded: very active”, respectively. Besides, in [1] (100 nM), the selectivity entry is reported as “not selective”. In [1], the “inhibition of the 32DtetP210bcrabl cell line” value is “inhibitory”. Moreover, in assay [1] (Mus musculus, 10 nanomolar of each drug, 32DtetP210bcrabl cell line, read-out: inhibition of P210bcrabl dependent cell growth), the inhibition at 0.01 µM came out at 10%. Also, the “inhibition of the 32Dtet cell line” value in the assay with 32D cells (similar concentration (1 micromolar), in words) is listed as “inhibits”. In addition, the inhibition at 10 µM against CDK2/cyclinA turned out to be 50%; against CaMKIV, 64%; against Fyn it was 29%; at IKKBeta it was 45%; against Lyn, 98%; on PKCbII it was 48%. At PKCy, this compound returned an inhibition at 10 µM of 61%. Besides, the “% Inhibition at 10 μM” value is on record as “(37) %” in the assay on CK1 and 40% with CaMKII. Besides, the GI50 in the assay with leukemia cell lines fell in the range of 2600 to 7300 nM. Further, in [3], the “activity against carcinoma and model carcinoma cell lines” value is “good activity”.

Regarding `COC(=O)C#CC(=O)NC1CCCCC1` [K1P], in assay [1] (100 nM), the leukemic cells surviving is reported as 50%. Further, the “inhibition of the 32DtetP210bcrabl cell line” value in [1] is reported as “inhibitory”. This compound registered a control cells surviving in the assay with 32D cells of 100%. Moreover, the “% Inhibition at 10 μM” value in the assay with CK1 is given as 46%. Besides, the figures for the inhibition at 10 µM against Fyn and against PKCbII were 49% and 35%, respectively. The GI50 with leukemia cell lines is 800 to 5000 nM; with renal cell lines, 2500 to 2700 nM. For the same compound, the “activity in the NCI cell lines” value in [2] (certain leukemia, colon cancer, melanoma, renal cancer cell lines and a breast cancer cell line, in words) is recorded as “enhanced activity”. The “activity against carcinoma and model carcinoma cell lines” value in assay [3] is “good activity”.

`Cc1ccc(NC(=O)c2ccc(CN3CCN(C)CC3)cc2)cc1Nc1nccc(-c2cccnc2)n1` [STI-571, reference compound]: the control cells alive result with 32D cells (10 nM, in words) is “all the control cells are still alive”.
